Experimental data reported in ChEMBL document CHEMBL1201862, “PubChem BioAssay data set” (2004).
Activity calls are given as the source filed them.

Key:
[1] = target: Heat shock protein HSP 90-alpha (Homo sapiens, UniProt P07900); type: functional, organism-based
[2] = target: T1, Replicative DNA helicase DnaB (Mycobacterium tuberculosis, UniProt P9WMR3); experiment: DnaB intein splicing inhibitors, dose response, biochemical, cell-free fluorescence (AID 449749); type: functional
T1 sequence (P9WMR3 whole entry): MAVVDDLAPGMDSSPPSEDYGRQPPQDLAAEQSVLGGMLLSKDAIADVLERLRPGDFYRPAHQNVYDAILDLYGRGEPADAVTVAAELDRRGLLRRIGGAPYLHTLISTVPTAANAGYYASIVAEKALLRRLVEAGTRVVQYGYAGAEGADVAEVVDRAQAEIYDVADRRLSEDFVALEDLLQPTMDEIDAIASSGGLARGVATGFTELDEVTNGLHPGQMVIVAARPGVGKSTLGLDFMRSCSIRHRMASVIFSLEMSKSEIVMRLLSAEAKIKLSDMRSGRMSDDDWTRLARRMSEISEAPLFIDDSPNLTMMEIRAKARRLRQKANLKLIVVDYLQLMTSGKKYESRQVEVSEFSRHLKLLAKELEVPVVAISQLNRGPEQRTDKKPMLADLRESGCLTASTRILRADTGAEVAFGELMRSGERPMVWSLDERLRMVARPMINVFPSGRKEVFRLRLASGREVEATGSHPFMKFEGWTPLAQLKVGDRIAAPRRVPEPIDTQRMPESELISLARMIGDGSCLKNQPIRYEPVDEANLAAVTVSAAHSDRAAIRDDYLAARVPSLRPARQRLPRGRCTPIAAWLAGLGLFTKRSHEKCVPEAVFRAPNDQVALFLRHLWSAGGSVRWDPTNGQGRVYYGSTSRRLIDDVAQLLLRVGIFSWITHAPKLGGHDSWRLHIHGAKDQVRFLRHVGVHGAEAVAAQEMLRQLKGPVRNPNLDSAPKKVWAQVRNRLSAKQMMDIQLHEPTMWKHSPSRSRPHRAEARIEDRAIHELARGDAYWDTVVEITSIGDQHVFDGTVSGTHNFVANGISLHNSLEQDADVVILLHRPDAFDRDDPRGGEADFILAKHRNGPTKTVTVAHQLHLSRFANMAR

Protein RecA = target: T2, Protein RecA (Mycobacterium tuberculosis, UniProt P9WHJ3); experiment: Fluorescence Cell-Free Homogeneous Dose Retest to Identify Inhibitors of RecA-Intein Splicing Activity. [Related pubchem assays (depositor defined):AID2097, AID2223, AID489010, AID492950]; type: functional
T2 sequence (P9WHJ3 whole entry): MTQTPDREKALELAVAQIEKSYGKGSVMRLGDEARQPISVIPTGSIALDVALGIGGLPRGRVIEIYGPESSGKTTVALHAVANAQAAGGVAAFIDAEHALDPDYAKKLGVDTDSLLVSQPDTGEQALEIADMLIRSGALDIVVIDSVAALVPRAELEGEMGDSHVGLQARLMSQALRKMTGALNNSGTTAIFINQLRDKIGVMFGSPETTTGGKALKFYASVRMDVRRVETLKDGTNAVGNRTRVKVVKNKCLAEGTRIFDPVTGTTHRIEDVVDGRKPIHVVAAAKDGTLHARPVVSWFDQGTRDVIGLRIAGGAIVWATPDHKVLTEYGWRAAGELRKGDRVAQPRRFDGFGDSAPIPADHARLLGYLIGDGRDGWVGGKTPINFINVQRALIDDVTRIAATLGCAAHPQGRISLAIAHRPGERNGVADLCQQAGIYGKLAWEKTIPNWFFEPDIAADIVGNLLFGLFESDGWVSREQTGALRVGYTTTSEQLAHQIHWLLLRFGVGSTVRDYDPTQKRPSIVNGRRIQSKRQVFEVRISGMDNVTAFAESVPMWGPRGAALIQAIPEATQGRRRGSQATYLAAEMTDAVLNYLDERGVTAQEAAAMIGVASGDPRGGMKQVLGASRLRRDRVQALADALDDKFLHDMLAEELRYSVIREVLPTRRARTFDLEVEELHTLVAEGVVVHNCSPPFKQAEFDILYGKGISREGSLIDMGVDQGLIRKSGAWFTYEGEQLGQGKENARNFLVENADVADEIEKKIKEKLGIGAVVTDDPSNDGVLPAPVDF

INS1 = experiment: INS-1E survival protection against cytokine death – cell-based, luminescence, retest, dose response (AID 449756); type: functional; conditions: Rattus norvegicus;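 further: cell death triggered by IL-1 beta plus TNF-alpha plus IFN-gamma mixture; protective hits raise ATP signal compared with cytokine alone wells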
[3] = reduction of Shn3 3'UTR-driven luciferase in osteoblasts – cell-based, Clone20 osteoblasts, firefly luciferase, cherry-picked, dose response (AID 624132); type: functional;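 further: firefly luciferase luminescence from reporter carrying the Shn3 3'UTR in osteoblasts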
[4] = loss of viability in HepG2 cells – cell-based, CellTiter-Glo, cherry-picked, cytotoxicity control for Shn3 inhibitor project, dose response (AID 624134); type: functional
[5] = non-specific 3'UTR reporter inhibition in Clone20-Shn3RL – cell-based, Renilla luciferase, cherry-picked, counter-screen for Shn3 inhibitor project, dose response (AID 624133); type: functional
[6] = target: Photoreceptor-specific nuclear receptor (Homo sapiens, UniProt Q9Y5X4); type: functional, cell-based;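 further: CHO-S cells with Gal4-NCOR and VP16-NR2E3 two-hybrid luciferase reporter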
Sequence of Photoreceptor-specific nuclear receptor (Q9Y5X4 whole entry, the tested form may be a part): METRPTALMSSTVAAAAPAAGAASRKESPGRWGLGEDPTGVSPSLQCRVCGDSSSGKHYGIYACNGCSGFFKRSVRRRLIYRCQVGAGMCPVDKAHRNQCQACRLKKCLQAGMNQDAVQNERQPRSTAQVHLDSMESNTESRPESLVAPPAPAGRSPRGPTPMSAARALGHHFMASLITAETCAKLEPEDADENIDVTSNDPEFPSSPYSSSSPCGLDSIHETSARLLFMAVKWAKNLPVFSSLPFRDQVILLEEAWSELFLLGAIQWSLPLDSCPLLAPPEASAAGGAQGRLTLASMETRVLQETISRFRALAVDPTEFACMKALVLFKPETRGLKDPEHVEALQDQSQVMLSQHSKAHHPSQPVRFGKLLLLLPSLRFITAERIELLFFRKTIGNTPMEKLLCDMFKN

Paired box protein Pax-8 = Paired box protein Pax-8 (Homo sapiens, UniProt Q06710); experiment: PAX8 transcriptional activity inhibition in RMG-I – RMG-I cells, luciferase, cherry-pick, dose response (AID 687027); type: functional, cell-based;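 further: luciferase reporter driven by Pax8 target thyroperoxidase promoter measured by SteadyGlo luminescence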
Sequence of Paired box protein Pax-8 (Q06710 whole entry): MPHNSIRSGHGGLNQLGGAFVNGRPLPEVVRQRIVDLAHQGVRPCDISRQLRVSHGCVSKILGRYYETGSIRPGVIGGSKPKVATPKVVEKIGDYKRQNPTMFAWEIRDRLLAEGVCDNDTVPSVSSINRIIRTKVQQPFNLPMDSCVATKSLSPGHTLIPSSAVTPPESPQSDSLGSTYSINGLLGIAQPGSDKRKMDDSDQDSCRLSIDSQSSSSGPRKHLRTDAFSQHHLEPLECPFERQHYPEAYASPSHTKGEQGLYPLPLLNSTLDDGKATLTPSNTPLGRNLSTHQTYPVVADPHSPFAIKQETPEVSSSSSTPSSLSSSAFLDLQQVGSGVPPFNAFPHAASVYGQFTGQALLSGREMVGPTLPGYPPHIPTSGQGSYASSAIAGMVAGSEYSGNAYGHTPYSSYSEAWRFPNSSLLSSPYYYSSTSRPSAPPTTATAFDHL

[7] = target: T3, Small ubiquitin-related modifier 1 (Homo sapiens, UniProt P63165); experiment: SUMO1 protein interaction blockers, potency – biochemical, fluorescence polarization, uHTS hits, dose response (AID 624382); type: functional; conditions: read-out: IC50_Mean
T3 sequence (P63165 whole entry): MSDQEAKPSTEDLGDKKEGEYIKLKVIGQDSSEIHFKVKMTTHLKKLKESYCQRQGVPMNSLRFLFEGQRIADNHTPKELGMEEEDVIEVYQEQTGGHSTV

[8] = target: T3, Small ubiquitin-related modifier 1; experiment: SUMO1 protein-protein binding blockers, potency – biochemical, FRET, dose response (AID 624383); type: functional; conditions: read-out: IC50_Mean
[9] = target: T4, DNA repair and recombination protein RAD54-like (Homo sapiens, UniProt Q92698); experiment: RAD54 Holliday junction migration blockers – biochemical, fluorescence, cherry-picked samples, dose series, confirmation (AID 651657); type: functional
T4 sequence (Q92698 whole entry): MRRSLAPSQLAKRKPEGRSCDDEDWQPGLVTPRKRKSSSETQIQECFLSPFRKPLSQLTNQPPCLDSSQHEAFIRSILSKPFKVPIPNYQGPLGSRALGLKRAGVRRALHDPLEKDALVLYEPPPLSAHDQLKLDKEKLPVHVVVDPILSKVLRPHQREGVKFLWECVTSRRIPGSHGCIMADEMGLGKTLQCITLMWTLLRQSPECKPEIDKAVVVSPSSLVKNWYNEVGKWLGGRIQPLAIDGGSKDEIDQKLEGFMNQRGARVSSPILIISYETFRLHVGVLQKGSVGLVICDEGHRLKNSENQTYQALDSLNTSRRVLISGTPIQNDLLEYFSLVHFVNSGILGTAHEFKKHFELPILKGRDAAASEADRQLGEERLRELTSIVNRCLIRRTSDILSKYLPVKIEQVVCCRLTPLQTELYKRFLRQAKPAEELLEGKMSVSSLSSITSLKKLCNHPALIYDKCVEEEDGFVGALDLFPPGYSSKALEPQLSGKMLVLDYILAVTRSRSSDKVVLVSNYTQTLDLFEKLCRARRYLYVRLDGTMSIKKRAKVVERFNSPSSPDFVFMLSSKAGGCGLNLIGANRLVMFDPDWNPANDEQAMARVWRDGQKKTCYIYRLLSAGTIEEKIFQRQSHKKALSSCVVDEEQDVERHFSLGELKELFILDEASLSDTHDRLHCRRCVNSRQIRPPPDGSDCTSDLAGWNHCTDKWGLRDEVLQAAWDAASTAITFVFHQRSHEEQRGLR

[10] = target: T5, DNA repair protein RAD52 homolog (Homo sapiens, UniProt P43351); type: functional, biochemical
T5 sequence (P43351 whole entry): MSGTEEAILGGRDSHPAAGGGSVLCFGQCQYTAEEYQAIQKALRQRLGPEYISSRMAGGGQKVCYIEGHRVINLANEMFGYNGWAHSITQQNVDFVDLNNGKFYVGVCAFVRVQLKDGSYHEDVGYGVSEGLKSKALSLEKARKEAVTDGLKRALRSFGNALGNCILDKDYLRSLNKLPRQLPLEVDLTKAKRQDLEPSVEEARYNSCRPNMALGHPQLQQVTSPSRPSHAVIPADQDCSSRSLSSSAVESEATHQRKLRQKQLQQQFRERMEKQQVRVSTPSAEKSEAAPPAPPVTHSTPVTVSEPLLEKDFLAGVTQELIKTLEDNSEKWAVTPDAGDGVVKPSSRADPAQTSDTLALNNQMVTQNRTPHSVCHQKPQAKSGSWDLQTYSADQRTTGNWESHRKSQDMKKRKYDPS

Albumin = Albumin (Bos taurus, UniProt P02769); experiment: Counterscreen for inhibitors of T-cell receptor (TCR)-CD3 interaction: Fluorescence-based biochemical high throughput dose response assay to identify inhibitors of T-cell receptor (TCR)-CD3 interaction using a TAMRA-labeled BSA probe.; type: functional
Sequence of Albumin (P02769 whole entry): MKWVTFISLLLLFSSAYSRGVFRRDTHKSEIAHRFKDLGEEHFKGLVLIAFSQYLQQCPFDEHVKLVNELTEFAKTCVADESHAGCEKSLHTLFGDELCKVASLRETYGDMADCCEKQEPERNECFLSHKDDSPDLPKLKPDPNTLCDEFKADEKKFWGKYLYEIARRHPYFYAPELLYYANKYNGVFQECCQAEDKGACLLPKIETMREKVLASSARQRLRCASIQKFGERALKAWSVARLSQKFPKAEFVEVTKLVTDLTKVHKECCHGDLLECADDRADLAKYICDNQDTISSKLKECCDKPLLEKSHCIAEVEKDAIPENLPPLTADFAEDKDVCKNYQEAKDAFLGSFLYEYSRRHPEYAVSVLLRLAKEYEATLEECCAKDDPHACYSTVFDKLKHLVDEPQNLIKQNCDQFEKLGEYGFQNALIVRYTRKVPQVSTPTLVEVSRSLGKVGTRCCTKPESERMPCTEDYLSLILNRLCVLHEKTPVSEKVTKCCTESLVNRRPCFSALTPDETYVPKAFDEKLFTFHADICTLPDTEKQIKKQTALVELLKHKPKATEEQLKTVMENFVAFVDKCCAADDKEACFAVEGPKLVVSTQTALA

HEK293 = experiment: cells; type: functional, cell-based; conditions: Homo sapiens
[11] = target: T6, Nuclear receptor subfamily 0 group B member 1 (Homo sapiens, UniProt P51843); experiment: Luminescence-based cell-based high throughput dose response assay for inhibitors of the orphan nuclear receptor subfamily 0, group B, member 1 (DAX1; NR0B1). [Related pubchem assays (depositor defined):AID504766, AID504790]; type: functional
T6 sequence (P51843 whole entry): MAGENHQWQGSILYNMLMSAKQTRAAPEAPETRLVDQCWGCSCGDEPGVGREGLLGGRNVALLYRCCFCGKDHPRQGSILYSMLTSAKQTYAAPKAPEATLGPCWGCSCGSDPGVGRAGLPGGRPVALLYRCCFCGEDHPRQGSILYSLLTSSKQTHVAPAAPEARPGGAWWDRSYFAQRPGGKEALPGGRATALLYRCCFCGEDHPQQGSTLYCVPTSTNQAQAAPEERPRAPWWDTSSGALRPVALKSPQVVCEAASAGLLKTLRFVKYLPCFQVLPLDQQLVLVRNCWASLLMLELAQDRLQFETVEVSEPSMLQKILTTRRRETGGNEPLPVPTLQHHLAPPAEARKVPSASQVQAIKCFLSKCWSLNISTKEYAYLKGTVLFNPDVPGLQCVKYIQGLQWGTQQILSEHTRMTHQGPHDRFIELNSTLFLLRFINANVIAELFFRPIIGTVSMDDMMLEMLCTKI

[12] = Dd2 parasite growth inhibition in erythrocytes – SYBR Green, dry powder samples, set 9, dose response (AID 1159568); type: functional, cell-based

N=C(Cc1ccc(Cl)cc1Cl)NOC(=O)c1cccs1
AC50 [1]: 3.59 µM (active)

CC(C)c1ccc(/C=C(\c2nc3ccccc3[nH]2)S(=O)(=O)c2ccccc2)cc1
AC50 [2]: 2.09 µM (active)
EC50 (Protein RecA): 2.01 µM (active)
AC50 (INS1): 4.38 µM (active)
AC50 [3]: 4.01 µM (active)
AC50 [4]: 18 µM (active)
AC50 [5]: 10.5 µM (active)
IC50 [6]: 2.72 µM (active)
AC50 (Paired box protein Pax-8): 5.15 µM (active)

Cc1cc(-c2cc(NC=O)c3ncc(-c4cccc(C(=O)NCCN(C)C)c4)n3c2)cc(C)c1O
IC50 [7]: > 66.6 µM (inactive)
IC50 [8]: 20.2 µM (inactive)
AC50 [9]: 8.33 µM (active)
AC50 [10]: 1.54 µM (active)

CCn1c(C)nc2cc(C(=O)NNC(=S)NC(=O)c3ccccc3)ccc21
IC50 (Albumin): > 94.1 µM (inactive)

Cc1ccc(OCC(=O)NC(=S)Nc2cccc(C)n2)cc1
IC50 (HEK293): > 67.5 µM (inactive)
IC50 [11]: > 67.5 µM (inactive)

N#C[C@H]1[C@@H](c2ccc(C3=CCCCC3)cc2)[C@@H](CO)N1C(=O)Nc1ccccc1F
AC50 [12]: 15.8 µM (active)
